In US20150080475A1, “Memantine Protects Inflammation-Related Degeneration of Dopamine Neurons Through Inhibition of Over-Activated Microglia and Release of Neurotrophic Factors From Astroglia” (priority 2009, published 2015):

What was measured:
[1] = tested on: DA neurons; assay: [3H] DA uptake, LPS-induced neurotoxicity in rat mesencephalic neuron-glia cultures; format: cell-based
Experimental: Rat and mouse ventral mesencephalic neuron-glia cultures were prepared using a described protocol (Gao H M, Hong J S, Zhang W Q, Liu B (2002) Distinct Role for Microglia in Rotenone-Induced Degeneration of Dopaminergic Neurons. J Neurosci 22(3):782-790). Briefly, midbrain tissues were dissected from day 14 Fisher 344 rat embryos or day 14 mouse embryos (PHOX^+/+ or PHOX^−/−). Cells were dissociated via gentle mechanical trituration in minimum essential medium (MEM) and immediately seeded (5×10^5/well) in poly D-lysine (20 μg/mL) precoated 24-well plates. Cells were seeded in maintenance media and treated with the treatment media described previously (Gao H M, Hong J S, Zhang W Q, Liu B (2002) Distinct Role for Microglia in Rotenone-Induced Degeneration of Dopaminergic Neurons. J Neurosci 22(3):782-790). Three days after seeding, the cells were replenished with 500 μL of fresh maintenance media. Cultures were exposed 7 days after seeding. At the time of treatment, the composition of the cultures was approximately 48% astrocytes, 11% microglia, 40% neurons, and 1 to 1.5% TH-immunoreactive (ir) neurons.
Cells were incubated in Krebs-Ringer buffer (16 mM NaH2PO4, 1.2 mM MgSO4, 1.3 mM EDTA, […], for 21 min at 37° C. with 1 μM [^3H] DA. Nonspecific uptake was blocked for DA with 10 μM mazindole. After incubation, cells were washed three times with 1 mL/well of ice-cold Krebs-Ringer buffer. Cells were then lysed with 0.5 mL/well of 1 N NaOH and mixed with 15 mL of scintillation fluid. Radioactivity was measured on a scintillation counter, where specific [^3H] DA uptake was calculated by subtracting the mazindole.
Rat mesencephalic neuron-glia cultures were pretreated for 30 min with vehicle or 1, 3, 10 μM MMT before adding LPS (2.5 to 5 ng/ml) to the cultures. One week later, the neurotoxic effect of LPS on DA neurons were assessed by both [H^3] DA uptake, which measures the functional capacity of high affinity uptake of DA cells and cell count of tyrosine hydroxylase-positive (TH-ir) cells. [H^3] […]

[2] = tested on: TH-ir neurons; assay: Cell count of TH-ir neurons in rat neuron-glia cultures; format: cell-based
Experimental: For visual counting of TH-ir neurons after Immunostaining, nine representative areas per well of the 24-well plate were counted under the microscope at 100¥ magnification. To measure the average TH-ir dendrite, 50 TH-ir representative neurons in each well were selected and three wells for each treatment condition were selected. In addition, the average dendrite length of TH-ir neurons was measured (Liu Y X, Qin L, Wilson B C, An L, Hong J S and Liu B (2002b) Inhibition by naloxone stereoisomers of -amyloid peptide (1-42)-induced superoxide production in microglia and degeneration of cortical and mesencephalic neurons. J Pharmacol Exp Ther 302: 1212-1219.).
Rat mesencephalic neuron-glia cultures were pretreated for 30 min with vehicle or 1, 3, 10 μM MMT before adding LPS (2.5 to 5 ng/ml) to the cultures. One week later, the neurotoxic effect of LPS on DA neurons were assessed by both [H^3] DA uptake, which measures the functional capacity of high affinity uptake of DA cells and cell count of tyrosine hydroxylase-positive (TH-ir) cells. [H^3] […] MMT alone increased the uptake capacity by 30-80% in 3 and 10 μM of MMT, respectively. […] The neurotrophic effect of MMT is astrocyte-dependent. Astrocytes, not micrglia, contribute to the neurotrophic effect of MMT at 1-10 μM MMT (FIG. 10).
In addition to the pre-treatment experiments, similar studies using post-treatment designs were conducted to determine the efficacy of MMT. In these experiments, neuron-glia cultures were either treated with MMT (10 μM) and LPS (2.5 ng/ml) at the same time, or MMT was added 30, 60, 120 or 180 min after the addition of LPS. One week later, DA uptake of the culture was assayed.
DA neurons were recognized with the polyclonal antibody against tyrosine hydroxylase (TH) and microglia was detected with the OX-42 antibody against CR3 receptor. […] To quantify cell numbers, nine representative areas per well in the 24-well plate were counted under the microscope at 100× magnification by two individuals. […]

[3] = tested on: HAPI; assay: MTT cell viability of HAPI cells with LPS; format: cell-based; conditions: MMT 10 uM, LPS 100 ng/ml, 48 hrs
Experimental: HAPI was seeded with 1*10^4/well in 96-well plate. Twenty-four hours later, it was treated with vehicle, MMT (10 uM), and LPS 100 ng/ml for 48 hrs. After adding MTT, cell viability was measured (FIG. 8A) and morphology (FIG. 8B) was examined by contrast microscope. Values are mean±SEM of three independent experiments. *p<0.05, compared with LPS.

[4] = Glutamate and aspartate concentrations in supernatants of primary neuron-glia cultures; format: cell-based; conditions: vehicle, 10 μM MMT, LPS 5 ng/ml, MMT plus LPS
Experimental: Primary neuron-glia cultures seeded in 24-well plates at a density of 5×10^5 cells/well for 7 days. Then, the cultures were treated with vehicle, 10 μM MMT, LPS 5 ng/ml, and MMT 10 μM and LPS 5 ng/ml, and supernatants derived from the primary neuron-glia cultures at indicated time points.
To determine the possibility that NMDA receptors might play a role in our mixed neuron/glia cultures in MMT-elicited neuroprotection, this invention determine the concentrations of excitatory amino acid, glutamate and aspartate in the supernatant of cultures after LPS treatment. Several authors reported the release of excitatory amino acid release from microglia by higher concentration of LPS (100 ng/ml). However, the concentration of glutamate released was limited to 10-20 μM, which may not be in sufficient concentrations to produce significant neuronal death (Obrenovitch et al. Excitotoxicity in neurological disorders--the glutamate paradox. Int J Dev Neurosci. 2000; 18:281-7.). In mixed neuron/glia cultures of this invention, with lower concentration of LPS (5 ng/ml) which was toxic to DA neurons, this invention could not detect any increases in both glutamate and aspartate (FIG. 13).

[5] = tested on: NMDA receptor; conditions: in vitro; cited from earlier work

CC12CC3CC(C)(C1)CC(N)(C3)C2.Cl [MMT, 1-amino-3,5-dimethyladamantane hydrochloride]
time of MMT addition after LPS still giving significant neuroprotection (DA uptake) ([1]; MMT 10 μM, LPS 2.5 ng/ml, post-treatment): up to 120 min | effect on LPS-induced decrease in DA uptake ([1]; neuron-enriched cultures): not in neuron-enriched cultures | effect on LPS-induced decrease in DA uptake ([1]; pretreated 30 min with 1, 3, 10 μM MMT, neuron-glia cultures, dose-dependent): significantly attenuated the LPS-induced decrease in DA uptake | effect on LPS-induced reduction in the number of TH-ir neurons ([2]; MMT 3 and 10 μM): significantly attenuated the LPS-induced reduction in the number of TH-ir neurons | growth of neurites (morphological observation) ([2]; MMT alone): enhanced the growth of neurites | number of TH-ir (DA) neurons vs vehicle control ([2]; MMT alone): increased the survival DA neuron number | effect on apoptosis of activated microglia induced by LPS (MTT cell viability) [3]: lack of effect | aspartate concentration in supernatant [4]: not obviously different | glutamate concentration in supernatant [4]: not obviously different | concentration of memantine on NMDA receptor blocking [5]: about 10 μM
